# From patent publication US20120094958A1, “QUINOLINES AS INHIBITORS OF FARNESYL PYROPHOSPHATE SYNTHASE” (NOVARTIS AG, priority 2008, published 2012)
# pIC50: −log10 of the molar value. Counter-ions that a name gives are not always drawn.
# Target: T1, Recombinant human Farnesyl Pyrophosphate synthase (FPPS) (Homo sapiens, UniProt P14324)
# T1 construct: made in house
# T1 sequence (P14324 1-353 isoform P14324-2): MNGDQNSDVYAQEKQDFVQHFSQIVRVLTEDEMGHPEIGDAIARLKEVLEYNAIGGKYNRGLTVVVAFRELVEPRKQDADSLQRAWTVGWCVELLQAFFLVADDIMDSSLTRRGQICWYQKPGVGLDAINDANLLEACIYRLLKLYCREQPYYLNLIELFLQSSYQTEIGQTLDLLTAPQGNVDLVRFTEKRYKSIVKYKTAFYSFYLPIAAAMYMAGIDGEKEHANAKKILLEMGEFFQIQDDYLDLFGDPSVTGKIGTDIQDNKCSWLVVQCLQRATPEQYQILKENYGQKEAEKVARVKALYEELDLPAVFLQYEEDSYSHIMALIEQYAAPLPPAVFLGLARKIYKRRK
# Experiment: FPPS enzyme assay, scintillation proximity (FlashPlate)
# Format: biochemical
# Details: not given
row,Compound,pIC50
1,O=C(O)c1ccc2cccc(-c3cccc4[nH]ccc34)c2n1 [Example 2.a.ii],5.19
2,"CCOP(=O)(Cc1ccc2cccc(-c3cccc4ccccc34)c2n1)OCC [Example 11.6, (8-Naphthalen-1-yl-quinolin-2-ylmethyl)-phosphonic acid diethyl ester]",< 4.00

# Same assay, conditions: FlashPlate SPA; GPP 150 nM, [3H]-IPP 150 nM, FPPS 500 pM, 45 minutes at room temperature; highest concentration tested 100 μM; read-out: FPPS IC50
row,Compound,pIC50
1,"COC(=O)C(CNC(=O)c1ccc2cccc(-c3cccc4ccccc34)c2n1)NS(=O)(=O)NC(=O)OC(C)(C)C (racemic) [Example 13, rac. 2-[(tert-Butoxycarbonylamino-sulfonyl)-amino]-3-[(8-naphthalen-1-yl-quinoline-2-carbonyl)-amino]-propionic acid methyl ester]",4.87
2,"O=C(O)c1ccc2cccc(-c3cccc4ccccc34)c2n1 [Example 1, 8-Naphthalen-1-quinoline-2-carboxylic acid]",6.28
3,O=C(OCc1ccccc1)c1ccc2cccc(-c3cccc4cnccc34)c2n1 [Example 2.b.i],< 5.00
4,O=C(OCc1ccccc1)c1ccc2cccc(-c3cccc4ncccc34)c2n1 [Example 2.c.i],< 5.00
5,O=C(O)c1ccc2cccc(-c3cccc4ncccc34)c2n1 [Example 2.c.ii],5.57
6,O=C(OCc1ccccc1)c1ccc2cccc(-c3cccc4c3CCCC4=O)c2n1 [Example 2.d.i],< 5.00
7,O=C(OCc1ccccc1)c1ccc2cccc(-c3cccc4[nH]c(=O)ccc34)c2n1 [Example 2.g.i],4.71
8,O=C(O)c1ccc2cccc(-c3cccc4[nH]c(=O)ccc34)c2n1 [Example 2.g.ii],< 4.00
9,"O=C(NCP(=O)(O)O)c1ccc2cccc(-c3cccc4ccccc34)c2n1 [Example 3, {[(8-Naphthalen-1-yl-quinoline-2-carbonyl)-amino]-methyl}-phosphonic acid]",4.39
10,"O=P(O)(O)CNc1ccc2cccc(-c3cccc4ccccc34)c2n1 [Example 5, [(8-Naphthalen-1-yl-quinolin-2-ylamino)-methyl]-phosphonic acid]",5.39
11,"O=[N+]([O-])c1cc(-c2cccc3ccccc23)c2nc(NCP(=O)(O)O)ccc2c1 [Example 6, [(6-Nitro-8-naphthalen-1-yl-quinolin-2-ylamino)-methyl]-phosphonic acid]",4.85
12,"O=P(O)(O)CNc1ccc2cc(-c3cc[nH]c3)cc(-c3cccc4ccccc34)c2n1 [Example 9, {[8-Naphthalen-1-yl-6-(1H-pyrrol-3-yl)-quinolin-2-ylamino]-methyl}-phosphonic acid]",4.67
13,"CCOP(=O)(CNc1ccc2cc(-c3ccn([Si](C(C)C)(C(C)C)C(C)C)c3)cc(-c3cccc4ccccc34)c2n1)OCC [Example 9.1, {[8-Naphthalen-1-yl-6-(1-triisopropylsilanyl-1H-pyrrol-3-yl)-quinolin-2-ylamino]-methyl}-phosphonic acid diethyl ester]",< 4.00
14,"O=P(O)(O)CNc1ccc2cc(-c3cccnc3)cc(-c3cccc4ccccc34)c2n1 [Example 10, [(8-Naphthalen-1-yl-6-pyridin-3-yl-quinolin-2-ylamino)-methyl]-phosphonic acid]",5.55
15,"CCOP(=O)(CNc1ccc2cc(-c3cccnc3)cc(-c3cccc4ccccc34)c2n1)OCC [Example 10.1, [(8-Naphthalen-1-yl-6-pyridin-3-yl-quinolin-2-ylamino)-methyl]-phosphonic acid diethyl ester]",5.55
16,"O=P(O)(O)Cc1ccc2cccc(-c3cccc4ccccc34)c2n1 [Example 11, (8-Naphthalen-1-yl-quinolin-2-ylmethyl)-phosphonic acid]",5.10
17,"O=P(O)(O)CNCc1ccc2cccc(-c3cccc4ccccc34)c2n1 [Example 12, {[(8-Naphthalen-1-yl-quinolin-2-ylmethyl)-amino]-methyl}-phosphonic acid]",< 4.00
18,rac. 2-[(amino-sulfonyl)-amino]-3-[(8-naphthalen-1-yl-quinoline-2-carbonyl)-amino]-propionic acid [Example 15.b],4.27

# The next lines start with the values.
row,pIC50,Compound
1,4.40,"COC(=O)C(CNC(=O)c1ccc2cccc(-c3cccc4ccccc34)c2n1)NS(N)(=O)=O (racemic) [Example 14, rac. 2-[(Amino-sulfonyl)-amino]-3-[(8-naphthalen-1-yl-quinoline-2-carbonyl)amino]-propionic acid methyl ester]"
2,< 4.00,"O=C(NCC1NS(=O)(=O)NC1=O)c1ccc2cccc(-c3cccc4ccccc34)c2n1 (racemic) [Example 15.a, rac. 8-Naphthalen-1-yl-quinoline-2-carboxylic acid (1,1,4-trioxo-1lambda*6*-[1,2,5]thiadiazolidin-3-ylmethyl)-amide]"
3,6.85,"O=C(O)c1ccc2cc(-c3ccc[nH]3)cc(-c3cccc4ccccc34)c2n1 [Example 36, 8-Naphthalen-1-yl-6-pyrrol-2-yl-quinoline-2-carboxylic acid]"
4,8.15,"O=P(O)(O)/C=C/c1ccc2cccc(-c3cccc4ccccc34)c2n1 [Example 40, [(E)-2-(8-Naphthalen-1-yl-quinolin-2-yl)-vinyl]-phosphonic acid]"
5,5.64,"O=P(O)(O)CCc1ccc2cccc(-c3cccc4ccccc34)c2n1 [Example 41, [2-(8-Naphthalen-1-yl-quinolin-2-yl)-ethyl]-phosphonic acid]"
6,6.47,"O=C(O)c1ccc2cc(Cl)cc(-c3cccc4ccccc34)c2n1 [Example 54, 6-Chloro-8-naphthalen-1-yl-quinoline-2-carboxylic acid]"

# Target: T2, FPPS (Farnesyl pyrophosphate synthase) (Homo sapiens, UniProt P14324)
# T2 sequence (P14324 1-353 isoform P14324-2): T1 sequence (P14324 1-353 isoform P14324-2)
# Experiment: FPPS Assay: LC-MS Method
# Format: biochemical
# Details: GPP/IPP 5 μM each, reaction stopped after 10 minutes
# Experimental: Recombinant human Farnesyl Pyrophosphate synthase (FPPS) was cloned, expressed and purified as previously described {J.-M. Rondeau et al., ChemMedChem 2006, 1, 267-271.} and stored as a 10 mg/mL stock solution in 25 mM Tris pH 7.4, 25 mM NaCl, 2 mM DTT (dithiothreitol). Geranyl pyrophosphate (GPP) was purchased from Anawa AG (Switzerland) and stored as a 1 mg/mL solution in 4 parts isopropanol:3 parts ammonia:1 part water. 1-[^3H]Isopentenyl pyrophosphate (IPP), 50 Ci/mmol; 1 Ci/mL, was purchased from Anawa AG and stored in ethanol:ammonia hydroxide 1:1 at −80 C. 1-[^3H] Farnesyl pyrophosphate triammonium salt, 100 Ci/mmol; 1 mCi/mL in 70% ethanol, 0.25 M ammonium bicarbonate was purchased from Anawa AG. Phospholipid-coated 384-well image FlashPlates™ were purchased from PerkinElmer. the assay buffer consisted of 20 mM HEPES pH7.4, 5 mM MgCl2 and 1 mM CaCl2.
# Selected compounds are assayed in another FPPS based assay:
# Into each well of a 384-well plate, 5 μL of compound in 20% DMSO/water is placed. 25 μL of GPP/IPP (5 μM each in assay buffer) is then added. The reaction is started with the addition of 10 μL of FPPS (diluted 1 to 10000 with assay buffer). After 10 minutes, the reaction is stopped by addition of 10 μL of 2 μM FSPP in 2% DMIPA/IPA. The reaction mixture is then extracted with 50 μL of n-pentanol using vortex mixing. After phase separation, 25 μL of the upper (n-pentanol) layer is transferred to a new 384-well plate and the pentanol is evaporated using a vacuum centrifuge. The dried residue is reconstituted in 50 μL of 0.1% DMIPA/water for analysis by the LC/MS/MS method.
# LC/MS/MS analyses are performed on a Micromass Quattro Micro interfaced to an Agilent 1100 binary LC pump. Injection is performed by a Gilson 215/889 autosampler using an injection loop size of 2.5 μL. Chromatography is performed on a Waters 2.1×20 mm Xterra MS C18 5 μm guard column (P/N186000652) contained in a guard column holder (P/N 186000262) using 0.1% DMIPA/methanol as solvent A and 0.1% DMIPA/water as solvent B. The gradient is 5% A from 0.00 to 0.30 min, 50% A at 0.31 min, 80% A at 1.00 min, and 5% A from 1.01 to 2.00 min. The flow rate is 0.3 mL/min and the flow is diverted to waste from 0.00 to 0.50 min and again from 1.20 to 2.00 min.
# The MRM transitions monitored are 381^−>79^− for FPP and 397^−>159^− for FSPP at a collision energy of 22 eV and a collision cell pressure of 2.1×10^−3 mbar of Ar. The dwell time per transition is 400 msec with a span of 0.4 Da. The interchannel delay and interscan delay are both 0.02 sec. Other mass spectrometric operating parameters are: capillary, 2.0 kV; cone, 35 V; extractor, 2.0 V, source temp., 100° C.; desolvation gas temp., 250° C.; desolvation gas flow, 650 L/hr; cone gas flow, 25 L/hr; multiplier, 650 V.
# The total cycle time per sample is 2.5 minutes. Since the analysis is formatted for 384-well plates, a plate is analyzed in 16 hours. The chromatograms are processed using Quanlynx software, which divides the area of individual FPP peaks by the area of the FSPP peaks (internal standard). The resulting values are reported as the relative response for the corresponding sample well.
row,pIC50,Compound
1,6.58,"O=P(O)(O)c1ccc2cc(-c3cccs3)cc(-c3cccc4ccccc34)c2n1 [Example 17, (8-Naphthalen-1-yl-6-thiophen-2-yl-quinolin-2-yl)-phosphonic acid]"
2,6.29,"O=P(O)(O)c1ccc2cc(I)cc(-c3cccc4ccccc34)c2n1 [Example 21, (6-Iodo-8-naphthalen-1-yl-quinolin-2-yl)-phosphonic acid]"
3,6.69,O=P(O)(O)c1ccc2cc(-c3ccsc3)cc(-c3cccc4ccccc34)c2n1 [Example 27c.ii]
4,6.05,O=P(O)(O)c1ccc2cc(-c3ccco3)cc(-c3cccc4ccccc34)c2n1 [Example 27d.ii]
5,6.01,O=P(O)(O)c1ccc2cc(-c3ccc4c(c3)OCO4)cc(-c3cccc4ccccc34)c2n1 [Example 27f.ii]
6,6.22,"O=P(O)(O)c1ccc2cc(-c3cccc(O)c3)cc(-c3cccc4ccccc34)c2n1 [Example 28, [6-(3-Hydroxy-phenyl)-8-naphthalen-1-yl-quinolin-2-yl]-phosphonic acid]"
7,7.16,"Nc1cc(-c2cccc3ccccc23)c2nc(C(=O)O)ccc2c1 [Example 31, 6-Amino-8-naphthalen-1-yl-quinoline-2-carboxylic acid]"
8,6.80,"O=C(O)c1ccc2cc(I)cc(-c3cccc4ccccc34)c2n1 [Example 32, 6-Iodo-8-naphthalen-1-yl-quinoline-2-carboxylic acid lithium salt]"
